Assay results as given in PubChem BioAssay AID248 (DTP/NCI, 2004).
Values joined by “and” are separate entries in the source; they are usually repeats but may differ in a detail not shown here. Equal entries are not always repeated. Inconclusive results and toxic doses are left out. No stated cut-off is given here; in the data, active means T/C of 150% or more; inactive means T/C below 125%.

Tested on: L1210 leukemia ip in BDF1 mice, survival T/C
Experiment: NCI In Vivo Anticancer Drug Screen. Data for tumor model L1210 Leukemia (intraperitoneal) in B6D2F1 (BDF1) mice
Settings: endpoint: mean survival time, higher = longer survival
Method in brief: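 Antitumor effect is assessed in tumor-bearing animals. Survival in the compound arm is compared with a vehicle-dosed control arm and expressed as their quotient.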

[1] = dose: 6.25 mg/kg/injection, schedule: Q01DX009 (ip), vehicle: Klucel (hydroxypropylcellulose) (HPC)
[2] = dose: 12.5 mg/kg/injection, schedule: Q04DX003 (ip), vehicle: Klucel (hydroxypropylcellulose) (HPC)
[3] = dose: 100.0 mg/kg/injection, schedule: Q01DX009 (ip), vehicle: saline with Tween-80
[4] = dose: 200.0 mg/kg/injection, schedule: Q01DX009 (ip), vehicle: saline with Tween-80
[5] = dose: 400.0 mg/kg/injection, schedule: Q01DX009 (ip), vehicle: saline with Tween-80
[6] = dose: 25.0 mg/kg/injection, schedule: Q01DX009 (ip), vehicle: Klucel (hydroxypropylcellulose) (HPC)
[7] = dose: 100.0 mg/kg/injection, schedule: Q01DX009 (ip), vehicle: Klucel (hydroxypropylcellulose) (HPC)
[8] = dose: 100.0 mg/kg/injection, schedule: Q01DX001 (ip), vehicle: saline
[9] = dose: 200.0 mg/kg/injection, schedule: Q01DX001 (ip), vehicle: saline
[10] = dose: 400.0 mg/kg/injection, schedule: Q01DX001 (ip), vehicle: saline
[11] = dose: 100.0 mg/kg/injection, schedule: Q04DX003 (ip), vehicle: saline
[12] = dose: 200.0 mg/kg/injection, schedule: Q04DX003 (ip), vehicle: saline
[13] = dose: 100.0 mg/kg/injection, schedule: Q04DX002 (ip), vehicle: saline with Tween-80
[14] = dose: 200.0 mg/kg/injection, schedule: Q04DX002 (ip), vehicle: saline with Tween-80
[15] = dose: 400.0 mg/kg/injection, schedule: Q04DX002 (ip), vehicle: saline with Tween-80
[16] = dose: 100.0 mg/kg/injection, schedule: Q04DX003 (ip), vehicle: saline with Tween-80
[17] = dose: 200.0 mg/kg/injection, schedule: Q04DX003 (ip), vehicle: saline with Tween-80
[18] = dose: 400.0 mg/kg/injection, schedule: Q04DX003 (ip), vehicle: saline with Tween-80
[19] = dose: 50.0 mg/kg/injection, schedule: Q01DX001 (ip), vehicle: saline
[20] = dose: 100.0 mg/kg/injection, schedule: Q04DX003 (ip), vehicle: Klucel (hydroxypropylcellulose) (HPC)
[21] = dose: 200.0 mg/kg/injection, schedule: Q04DX003 (ip), vehicle: Klucel (hydroxypropylcellulose) (HPC)
[22] = dose: 400.0 mg/kg/injection, schedule: Q04DX003 (ip), vehicle: Klucel (hydroxypropylcellulose) (HPC)

Measured: T/C

CCc1c2cc3c(cc2cc2c4cc5c(cc4cc[n+]12)OCO5)OCO3 (tested in a mixture with another compound)
inactive: dose: 3.13 mg/kg/injection, schedule: Q01DX009 (ip), vehicle: Klucel (hydroxypropylcellulose) (HPC) 122 % of control | dose: 3.13 mg/kg/injection, schedule: Q04DX003 (ip), vehicle: Klucel (hydroxypropylcellulose) (HPC) 113 % of control | [1] 110 % of control | dose: 6.25 mg/kg/injection, schedule: Q04DX003 (ip), vehicle: Klucel (hydroxypropylcellulose) (HPC) 110 % of control | [2] 113 % of control and 115 % of control

CC(C)NC(=O)Oc1cccc(NC(=O)N(C)C)c1
inactive: [3] 93 % of control | [4] 93 % of control | [5] 93 % of control

CN(C)c1ccc(N=Nc2ccncc2)cc1
inactive: [6] 98 % of control | dose: 50.0 mg/kg/injection, schedule: Q01DX009 (ip), vehicle: Klucel (hydroxypropylcellulose) (HPC) 98 % of control | [7] 94 % of control

CCCC/C(=N\OC(=O)N(C)C)c1ccccc1
inactive: [8] 103 % of control | [9] 98 % of control | [10] 98 % of control

OCC1C=CCC=C1
inactive: [11] 100 % of control | [12] 98 % of control | dose: 400.0 mg/kg/injection, schedule: Q04DX003 (ip), vehicle: saline 93 % of control

NC(CSS(=O)(=O)O)=NCCCc1ccccc1
inactive: dose: 12.5 mg/kg/injection, schedule: Q04DX002 (ip), vehicle: Klucel (hydroxypropylcellulose) (HPC) 97 % of control | dose: 25.0 mg/kg/injection, schedule: Q04DX002 (ip), vehicle: Klucel (hydroxypropylcellulose) (HPC) 108 % of control

O=[N+]([O-])c1cc(S(=O)(=O)O)cc([N+](=O)[O-])c1Cl
inactive: dose: 75.0 mg/kg/injection, schedule: Q01DX001 (ip), vehicle: saline 112 % of control | dose: 150.0 mg/kg/injection, schedule: Q01DX001 (ip), vehicle: saline 109 % of control | dose: 300.0 mg/kg/injection, schedule: Q01DX001 (ip), vehicle: saline 113 % of control

S=P(c1ccccc1)(c1ccccc1)N1CCCCC1
inactive: [13] 96 % of control | [14] 93 % of control | [15] 93 % of control

CCOC(=O)C(CCc1c[nH]c(=O)[nH]c1=O)(NC(C)=O)C(=O)OCC
inactive: dose: 50.0 mg/kg/injection, schedule: Q04DX002 (ip), vehicle: saline 102 % of control | dose: 100.0 mg/kg/injection, schedule: Q04DX002 (ip), vehicle: saline 122 % of control | dose: 200.0 mg/kg/injection, schedule: Q04DX002 (ip), vehicle: saline 102 % of control | dose: 400.0 mg/kg/injection, schedule: Q04DX002 (ip), vehicle: saline 104 % of control

COc1cc2c3cc1Oc1c(OC)c(OC)cc4c1C(Cc1ccc(OC(C)=O)c(c1)Oc1ccc(cc1)CC3N(C)CC2)N(C)CC4 (centres undefined)
inactive: [16] 108 % of control | [17] 101 % of control | [18] 103 % of control

CSc1ccc(C(=O)Nc2c(N)ncnc2N)cc1
inactive: dose: 25.0 mg/kg/injection, schedule: Q01DX001 (ip), vehicle: saline 97 % of control | [19] 87 % of control | dose: 100.0 mg/kg/injection, schedule: Q01DX001 (ip), vehicle: saline with Tween-80 100 % of control | [8] 88 % of control

CNC(=O)N(c1ccccc1)C1CCCCC1
inactive: dose: 50.0 mg/kg/injection, schedule: Q01DX009 (ip), vehicle: saline 112 % of control | dose: 100.0 mg/kg/injection, schedule: Q01DX009 (ip), vehicle: saline 103 % of control | [11] 104 % of control | dose: 200.0 mg/kg/injection, schedule: Q01DX009 (ip), vehicle: saline 103 % of control | [12] 97 % of control

CCOC(=O)C(C#N)C(=N)C1CC(C)(C)OC1=O (centres undefined)
inactive: dose: 75.0 mg/kg/injection, schedule: Q01DX001 (ip), vehicle: other 101 % of control | dose: 150.0 mg/kg/injection, schedule: Q01DX001 (ip), vehicle: other 106 % of control

COC(=O)NS(=O)(=O)C=C(c1ccccc1)c1ccccc1
inactive: [7] 106 % of control | [20] 96 % of control | dose: 200.0 mg/kg/injection, schedule: Q01DX009 (ip), vehicle: Klucel (hydroxypropylcellulose) (HPC) 106 % of control | [21] 108 % of control | [22] 86 % of control

CCOC(=O)C1CCC(NC(=O)c2ccccc2)CC1 (centres undefined)
inactive: dose: 100.0 mg/kg/injection, schedule: Q01DX001 (ip), vehicle: Klucel (hydroxypropylcellulose) (HPC) 93 % of control | [20] 100 % of control | dose: 200.0 mg/kg/injection, schedule: Q01DX001 (ip), vehicle: Klucel (hydroxypropylcellulose) (HPC) 93 % of control | [21] 98 % of control | dose: 400.0 mg/kg/injection, schedule: Q01DX001 (ip), vehicle: Klucel (hydroxypropylcellulose) (HPC) 93 % of control | [22] 94 % of control

O=[N+]([O-])c1ccc(OP(=O)(N2CCCCC2)N2CCCCC2)cc1
inactive: dose: 25.0 mg/kg/injection, schedule: Q04DX002 (ip), vehicle: saline with Tween-80 93 % of control | dose: 50.0 mg/kg/injection, schedule: Q04DX002 (ip), vehicle: saline with Tween-80 101 % of control | [13] 93 % of control

O=c1ccc([N+](=O)[O-])c[nH]1.[Ag]
inactive: [1] 86 % of control | dose: 12.5 mg/kg/injection, schedule: Q01DX009 (ip), vehicle: Klucel (hydroxypropylcellulose) (HPC) 86 % of control | [2] 88 % of control | [6] 95 % of control | dose: 25.0 mg/kg/injection, schedule: Q04DX003 (ip), vehicle: Klucel (hydroxypropylcellulose) (HPC) 99 % of control

COC1(c2ccccc2)Oc2ccccc2C(=O)C1(O)C[N+](=O)[O-] (centres undefined)
inactive: [19] 95 % of control | [8] 89 % of control | [9] 95 % of control | [10] 101 % of control

Cc1nc(N)[nH]c(=O)c1CCCNC(=O)Cc1ccccc1
inactive: dose: 12.5 mg/kg/injection, schedule: Q01DX001 (ip), vehicle: Klucel (hydroxypropylcellulose) (HPC) 105 % of control | dose: 25.0 mg/kg/injection, schedule: Q01DX001 (ip), vehicle: Klucel (hydroxypropylcellulose) (HPC) 97 % of control | dose: 50.0 mg/kg/injection, schedule: Q01DX001 (ip), vehicle: Klucel (hydroxypropylcellulose) (HPC) 100 % of control

FC(F)(F)c1ccc2nc(CI)c(CI)nc2c1
inactive: dose: 6.0 mg/kg/injection, schedule: Q01DX009 (ip), vehicle: other 98 % of control | dose: 12.0 mg/kg/injection, schedule: Q01DX009 (ip), vehicle: other 91 % of control | dose: 12.5 mg/kg/injection, schedule: Q01DX009 (ip), vehicle: saline with Tween-80 88 % of control | dose: 25.0 mg/kg/injection, schedule: Q01DX009 (ip), vehicle: other 95 % of control | dose: 25.0 mg/kg/injection, schedule: Q04DX003 (ip), vehicle: other 94 % of control | dose: 50.0 mg/kg/injection, schedule: Q04DX003 (ip), vehicle: other 87 % of control | dose: 100.0 mg/kg/injection, schedule: Q04DX003 (ip), vehicle: other 97 % of control

[Cl][Pt+2]([Cl])([Cl])[Cl].c1ccc(C2CC[N-]CC2)cc1.c1ccc(C2CC[N-]CC2)cc1
inactive: dose: 50.0 mg/kg/injection, schedule: Q01DX009 (ip), vehicle: water 101 % of control | dose: 100.0 mg/kg/injection, schedule: Q01DX009 (ip), vehicle: water 102 % of control | dose: 100.0 mg/kg/injection, schedule: Q04DX003 (ip), vehicle: water 105 % of control | dose: 200.0 mg/kg/injection, schedule: Q04DX003 (ip), vehicle: water 103 % of control

CC(C)CCCC(C)C1CCC2C3CC=C4C=C(OC(=O)c5ccccc5)CCC4(C)C3CCC12C (centres undefined)
inactive: [3] 90 % of control | [16] 97 % of control | [4] 87 % of control | [17] 95 % of control | [5] 95 % of control | [18] 87 % of control

CN(C)c1nc(N)c(N=O)c(N)n1
inactive: [13] 111 % of control | [14] 107 % of control | [15] 104 % of control
